Test results as given in patent US4804660A, “Ergot cyclic peptide alkaloids having a venotonizing effect, useful for treating orthostatic hypotension” (Sandoz Ltd., priority 1981, dated 1989).

Tests used:
[1] = tested on: rat brain; assay: carbon-14-2-deoxyglucose autoradiographic technique, local cerebral glucose utilisation; format: in vivo; settings: 3 mg/kg i.p.
Experimental: Moreover the compounds increase the local cerebral glucose utilisation in the sensomotor cartex, e.g. Hippocampus, Nucleus habenula, Nucleus corpus gentcul . As indicated by the carbon-14-2-deoxyglucose autoradiographic technique with the rat brain on administration i.p. of from about 0.3 to about 30 mg/kg of the compounds [for method see e.g. L. Solokoff, Journal of Cerebral Blood Flow and Metabolism, 1981, (1), 7-36, H. E. Savaki et al. Brain Research 1982, 233, 347 and J. McCulloch et al. Journal of Cerebral Blood Flow and Metabolism 1981, 1, 133-136.

[2] = tested on: rat; assay: apomorphine stereotypy test / stereotypy in the rat; format: in vivo; settings: 30 mg/kg i.p.
Experimental: The compounds moreover induce stereotypy in the rat at a dose of about 30 mg/kg i.p.
and has a score. in the apomorphine stereotypy test of 15.7 at 30 mg/kg i.p .

2-methyl-9,10-dihydro-9'-thia-α-ergocryptine
increase in local cerebral glucose utilisation, Hippocampus ([1]; Hippocampus): +2%
increase in local cerebral glucose utilisation, Nucleus dors.corpus genicul.lat ([1]; Nucleus dors.corpus genicul.lat): +25%
increase in local cerebral glucose utilisation, Nucleus lateralis huberula ([1]; Nucleus lateralis huberula): +22%
score in the apomorphine stereotypy test [2]: 15.7
